Values of other authors in patent publication US20260144756A1 (US NANO FOOD AND DRUG INC, priority 2022, published 2026).

Conditions: in vivo

elimination / terminal half-life: about 20 hours
Compound: CC(C)(Oc1ccc(C(=O)c2ccc(Cl)cc2)cc1)C(=O)O [fenofibric acid]
